# Key:
# Format in all cases: physicochemical
# [1] = Stability of seamed soft capsule formulations of BO-653 (2): Formulation 3, shell thickness and glycerin content, HPLC; conditions: Formulation 3 (50% w/w in soybean oil)
# Method: Formulation 3 obtained in Example 1 was stored at 50°C in a 100% oxygen atmosphere.
# [2] = Stability of seamed soft capsule formulations of BO-653 (3): Formulation 4, various storage conditions, HPLC
# [3] = Stability of seamed soft capsule formulation of BO-653 (1): Formulations 1 and 2, accelerated tests, HPLC; conditions: 100% oxygen atmosphere
# Method: Formulations 1 and 2 obtained in Example 1 were tested for their stability under the conditions below: Condition 1: • Formulation 1 was left at 40°C in a 100% oxygen atmosphere. Condition 2: • Formulation 1 was left at 50°C in a 100% oxygen atmosphere. Condition 3: • Formulation 2 was left at 50°C in a 100% oxygen atmosphere.
# As a control, BO-653 was dissolved in soybean oil to give a concentration of 10% by weight and the solution was left at 40°C in a 100% oxygen atmosphere in the form that the solution was not filled into a soft capsule.
# [4] = Stability of BO-653 in various fat and oils (influence of oxygen, accelerated test at 80°C, HPLC); conditions: 17 hours
# Method: The influence of oxygen on the stability of BO-653 in various fat and oils was tested. BO-653 was dissolved in soybean oil, olive oil, MCT, tricaprylin, and linoleic acid separately to give a concentration of 50% by weight. 70 mg of each of the solutions was placed into individual 5 cc glass bottles. Separately, 35 mg of BO-653 was directly placed into a 5 cc glass bottle. The samples were prepared in duplicate. One set of samples were subjected to an argon replacement of the headspace of the bottles and then tightly sealed, while the other set of samples were sealed without argon replacement. Accelerated test at 80°C was conducted using all of the samples.
substance,measurement,setting,value
"4,6-di-tert-butyl-2,2-di-n-pentyl-5-hydroxy-2,3-dihydrobenzofuran [BO-653]",Content (%) of BO-653 after left at 50°C in a 100% oxygen atmosphere for 1 month,"[1]; Capsule No. 1: thickness 26 x 10^-3 inch (66 x 10^-2 mm), glycerin content 30.0",99.4%
same,Content (%) of BO-653 after left at 50°C in a 100% oxygen atmosphere for 1 month,"[1]; Capsule No. 2: thickness 30 x 10^-3 inch (76 x 10^-2 mm), glycerin content 30.0",99.9%
same,Content (%) of BO-653 after left at 50°C in a 100% oxygen atmosphere for 1 month,"[1]; Capsule No. 3: thickness 34 x 10^-3 inch (86 x 10^-2 mm), glycerin content 30.0",99.7%
same,Content (%) of BO-653 after left at 50°C in a 100% oxygen atmosphere for 1 month,"[1]; Capsule No. 4: thickness 26 x 10^-3 inch (66 x 10^-2 mm), glycerin content 44.2",98.8%
same,Content (%) of BO-653 after left at 50°C in a 100% oxygen atmosphere for 1 month,"[1]; Capsule No. 5: thickness 30 x 10^-3 inch (76 x 10^-2 mm), glycerin content 44.2",100.0%
same,Content (%) of BO-653 after left at 50°C in a 100% oxygen atmosphere for 1 month,"[1]; Capsule No. 6: thickness 34 x 10^-3 inch (86 x 10^-2 mm), glycerin content 44.2",100.8%
same,Content (%) of BO-653 after left at 50°C in a 100% oxygen atmosphere for 1 month,"[1]; Capsule No. 8: thickness 30 x 10^-3 inch (76 x 10^-2 mm), glycerin content 56.4",97.0%
same,Content (%) of BO-653 after left at 50°C in a 100% oxygen atmosphere for 1 month,"[1]; Capsule No. 9: thickness 34 x 10^-3 inch (86 x 10^-2 mm), glycerin content 56.4",98.8%
same,Residual ratio (%) of BO-653,"[2]; Formulation 4, BO-653 content in filling solution 4% by weight, 40°C, RH75% - 1M",99.0%
same,Residual ratio (%) of BO-653,"[2]; Formulation 4, BO-653 content in filling solution 4% by weight, 50°C, 100% oxygen atmosphere-1M",100.0%
same,Residual ratio (%) of BO-653,"[2]; Formulation 4, BO-653 content in filling solution 4% by weight, irradiation with 1,200,000 lux.hrs white light",100.0%
same,Residual ratio (%) of BO-653,"[2]; Formulation 4, BO-653 content in filling solution 4% by weight, irradiation with 1,200,000 lux.hrs white light followed by 400 W.hrs/m^2 UV rays",98.0%
same,Residual ratio (%) of BO-653,"[2]; Formulation 4, BO-653 content in filling solution 40% by weight, 40°C, RH75% - 1M",100.1%
same,Residual ratio (%) of BO-653,"[2]; Formulation 4, BO-653 content in filling solution 40% by weight, 50°C, 100% oxygen atmosphere-1M",100.7%
same,Residual ratio (%) of BO-653,"[2]; Formulation 4, BO-653 content in filling solution 40% by weight, irradiation with 1,200,000 lux.hrs white light",100.0%
same,Residual ratio (%) of BO-653,"[2]; Formulation 4, BO-653 content in filling solution 40% by weight, irradiation with 1,200,000 lux.hrs white light followed by 400 W.hrs/m^2 UV rays",99.7%
same,Residual ratio (%) of BO-653,"[2]; Formulation 4, BO-653 content in filling solution 80% by weight, 40°C, RH75% - 1M",99.8%
same,Residual ratio (%) of BO-653,"[2]; Formulation 4, BO-653 content in filling solution 80% by weight, 50°C, 100% oxygen atmosphere-1M",101.0%
same,Residual ratio (%) of BO-653,"[2]; Formulation 4, BO-653 content in filling solution 80% by weight, irradiation with 1,200,000 lux.hrs white light",99.5%
same,Residual ratio (%) of BO-653,"[2]; Formulation 4, BO-653 content in filling solution 80% by weight, irradiation with 1,200,000 lux.hrs white light followed by 400 W.hrs/m^2 UV rays",99.8%
same,Residual ratio (%) of BO-653,"[3]; Condition 1: Formulation 1 (10% w/w in soybean oil, seamed soft capsule), 40°C, 1 month",100.7%
same,Residual ratio (%) of BO-653,"[3]; Condition 2: Formulation 1 (10% w/w in soybean oil, seamed soft capsule), 50°C, 2 weeks",99.6%
same,Residual ratio (%) of BO-653,"[3]; Condition 3: Formulation 2 (10% w/w in MCT, seamed soft capsule), 50°C, 3 weeks",92.8%
same,Residual ratio (%) of BO-653,"[3]; Control: 10% by weight solution in soybean oil not filled into a soft capsule, 40°C, 1 month",< 0.2%
same,residual ratio of BO-653,"[4]; 50% by weight in soybean oil, without argon replacement (presence of oxygen)",Relatively high stability
same,residual ratio of BO-653,"[4]; BO-653 alone or 50% by weight in soybean oil, olive oil, MCT, tricaprylin or linoleic acid, with argon replacement (absence of oxygen)",little loss

# From patent EP1172104A1, “SEAM SOFT CAPSULE PREPARATIONS CONTAINING DIHYDROBENZOFURAN DERIVATIVE” (CHUGAI SEIYAKU KABUSHIKI KAISHA, priority 1999, dated 2000)
